The values that follow come from patent publication US9115073B2, “1,3-diphenylpropane derivatives, preparations and uses thereof” (GENFIT, priority 2011, dated 2015).

A word on the EC50: it is the concentration giving half of the maximal effect. A high value points to a need for much substance.

What all share (type): cell-based
One assay has as its target T1, hPPARalpha (Homo sapiens, UniProt Q07869).
T1 construct: Gal4-hPPARα(LBD); Gal4 (fusion partner); expressed in transfected cells; host or cells: COS-7 (monkey kidney)
T1 sequence (Q07869 239-466 limits assumed): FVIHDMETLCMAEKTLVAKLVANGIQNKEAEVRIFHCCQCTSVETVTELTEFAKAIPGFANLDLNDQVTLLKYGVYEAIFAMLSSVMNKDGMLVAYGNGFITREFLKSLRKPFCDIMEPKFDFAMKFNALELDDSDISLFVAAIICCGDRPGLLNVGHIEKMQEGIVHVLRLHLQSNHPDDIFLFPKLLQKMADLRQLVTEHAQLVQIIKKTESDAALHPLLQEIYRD
As to the kind of experiment: Gal4-hPPARalpha transactivation assay in COS-7 cells (luciferase). Conditions: for EC50: Gal4-hPPARα(LBD) transactivation; for Gal4-hPPARα(LBD) TOP (% ref): maximal relative activation vs reference; for Emax: COS-7, maximal relative activation vs reference, read-out: Gal4-hPPARα(LBD) TOP (% ref). On the procedure:
(§1) Monkey kidney COS-7 cells were maintained in standard culture conditions (Dulbecco's modified Eagle's minimal medium: DMEM) supplemented with 10% fetal calf serum, 1% sodium pyruvate, 1% essential amino acids and 1% antibiotics at 37° C. in a humidified atmosphere of 5% C02 and 95% air. The medium was changed every 2 days. All tested compounds were dissolved in DMSO. Cells were transfected using 2 μl JetPEI™ (Polyplus transfection)/μg of DNA. Briefly, 40 μg of DNA was transfected in a 225 cm^2 culture flask of adherent COS-7 cells (respecting the 1/50 ratio between the Gal4(RE)_TkpGL3 plasmid and the plasmid coding the nuclear receptor of interest (pGal4-hPPARalpha, pGal4-hPPARgamma, pGal4-hPPARdelta, pGal4-mPPARalpha, pGal4-mPPARgamma and pGal4-mPPARdelta) or of the pGal4phi plasmid (negative control). Cells were enzymatically detached and seeded in 384 well plates at the density of 20,000 cells/well and then incubated for 4 hours at 37° C. The activation was automatically performed, by using the Genesis Freedom 200™ (Tecan), in fresh medium supplemented with 2% of synthetic serum, free of lipids (Ultroser™, Biosepra) supplemented with the tested compounds (compound of interest or reference molecules) or vehicle (DMSO 0.1%). The luciferase activity was measured with the Steady-Glo Luciferase Assay System (Promega, Madison, Wis.). All transactivation experiments were performed at least 2 times. Activation curves were realized using SigmaPlot® (version 7.0 from SPSS Inc.) software and took into account all the experimental points. SimgaPlot® was also used to fit the standard curves and then determine the specific EC50 values, maximum effect versus reference molecules and Hill slope. The Emax effect of each new ligand is represented as the ratio of the maximal induction (plateau) obtained with the new ligand and the induction obtained with the corresponding reference compound. The reference compounds for PPARalpha, PPARgamma and PPARdelta were fenofibrate (100 μM), rosiglitazone (10 μM) and GW501516 (1 μM).

Another assay addresses T2, hPPARgamma (Homo sapiens, UniProt P37231).
T2 construct: Gal4-hPPARγ(LBD); Gal4 (fusion partner); expressed in transfected cells; host or cells: COS-7 (monkey kidney)
T2 sequence (P37231 238-503 limits assumed): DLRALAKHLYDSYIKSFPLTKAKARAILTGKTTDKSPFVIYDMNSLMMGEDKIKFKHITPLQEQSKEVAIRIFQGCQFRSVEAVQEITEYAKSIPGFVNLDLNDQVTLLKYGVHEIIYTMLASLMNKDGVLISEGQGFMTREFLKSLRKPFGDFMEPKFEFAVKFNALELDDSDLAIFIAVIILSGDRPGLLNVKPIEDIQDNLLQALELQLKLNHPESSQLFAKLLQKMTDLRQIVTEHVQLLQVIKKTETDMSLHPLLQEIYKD
Nature of the assay: Gal4-hPPARgamma transactivation assay in COS-7 cells (luciferase). Conditions: for EC50: Gal4-hPPARγ(LBD) transactivation; for Gal4-hPPARγ(LBD) TOP (% ref): maximal relative activation vs reference; for Emax: COS-7, maximal relative activation vs reference, read-out: Gal4-hPPARγ(LBD) TOP (% ref). On the procedure: as §1

The target of another assay is T3, hPPARdelta (Homo sapiens, UniProt Q03181).
T3 construct: Gal4-hPPARδ(LBD); Gal4 (fusion partner); expressed in transfected cells; host or cells: COS-7 (monkey kidney)
T3 sequence (Q03181 211-439 limits assumed): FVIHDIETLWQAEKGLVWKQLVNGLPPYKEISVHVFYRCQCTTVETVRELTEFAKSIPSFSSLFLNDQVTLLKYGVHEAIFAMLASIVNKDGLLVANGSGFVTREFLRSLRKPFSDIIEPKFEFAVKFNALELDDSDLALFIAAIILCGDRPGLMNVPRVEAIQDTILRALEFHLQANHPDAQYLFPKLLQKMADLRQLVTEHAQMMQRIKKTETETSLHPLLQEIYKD
As to the kind of experiment: Gal4-hPPARdelta transactivation assay in COS-7 cells (luciferase). The note with it: for EC50: Gal4-hPPARδ(LBD) transactivation; for Gal4-hPPARδ(LBD) TOP (% ref): maximal relative activation vs reference; for Emax: COS-7, maximal relative activation vs reference, read-out: Gal4-hPPARδ(LBD) TOP (% ref). The method, then: as §1

With `COC(c1ccc(Br)cc1)C1CC1c1cc(C)c(OC(C)(C)C(=O)O)c(C)c1` (racemic) [Cpd 1-2, 2-(4-(2-(methoxy(4-bromophenyl)methyl)cyclopropyl)-2,6-dimethylphenoxy)-2-methylpropanoic acid], on hPPARalpha, the response was half-maximal at 186 nM (EC50) and the “Gal4-hPPARα(LBD) TOP (% ref)” value was found to be 33 % ref. On hPPARgamma, the 50% effective concentration (EC50) was determined as 19 nM and the “Gal4-hPPARγ(LBD) TOP (% ref)” value is listed as 77 % ref. Besides, at hPPARdelta, the EC50 was 54 nM and the “Gal4-hPPARδ(LBD) TOP (% ref)” value was determined as 83 % ref.
For the compound `COC(c1ccc(C)cc1)C1CC1c1cc(C)c(OC(C)(C)C(=O)O)c(C)c1` (racemic) [Cpd 2-1, 2-(4-(2-(methoxy(4-methylphenyl)methyl)cyclopropyl)-2,6-dimethylphenoxy)-2-methylpropanoic acid], the Emax was 35% at hPPARalpha, 72% on hPPARgamma and 85% on hPPARdelta. In addition, the figures for the EC50 at hPPARalpha, on hPPARgamma and on hPPARdelta were 635 nM, 110 nM and 152 nM, respectively.
`COC(c1ccc(SC)cc1)C1CC1c1cc(C)c(OC(C)(C)C(=O)O)c(C)c1` (racemic) [Cpd 3-2, 2-(4-(2-(methoxy(4-(methylthio)phenyl)methyl)cyclopropyl)-2,6-dimethylphenoxy)-2-methylpropanoic acid]: the “Gal4-hPPARα(LBD) TOP (% ref)” value at hPPARalpha is 42 % ref. The “Gal4-hPPARγ(LBD) TOP (% ref)” value at hPPARgamma is recorded as 65 % ref. The “Gal4-hPPARδ(LBD) TOP (% ref)” value at hPPARdelta amounted to 75 % ref.
`COC(c1ccc(C(F)(F)F)cc1)C1CC1c1cc(C)c(OC(C)(C)C(=O)O)c(C)c1` (racemic) [Cpd 4-1, 2-(4-(2-(methoxy(4-(trifluoromethyl)phenyl)methyl)cyclopropyl)-2,6-dimethylphenoxy)-2-methylpropanoic acid]: the Emax at hPPARalpha was 47%; on hPPARgamma, 84%; on hPPARdelta, 92%. For the same compound, the values for the concentration giving a half-maximal response (EC50) at hPPARalpha, on hPPARgamma and at hPPARdelta were 64 nM, 20 nM and 16 nM, respectively.
For `CCCCOC(c1ccc(OC(F)(F)F)cc1)C1CC1c1cc(C)c(OC(C)(C)C(=O)O)c(C)c1` (racemic) [Cpd 5-2, 2-(4-(2-(butyloxy(4-(trifluoromethoxy)phenyl)methyl)cyclopropyl)-2,6-dimethylphenoxy)-2-methylpropanoic acid], the “Gal4-hPPARα(LBD) TOP (% ref)” value at hPPARalpha was determined as 47 % ref. Further, on hPPARgamma, the “Gal4-hPPARγ(LBD) TOP (% ref)” value amounted to 72 % ref. In addition, the “Gal4-hPPARδ(LBD) TOP (% ref)” value at hPPARdelta is recorded as 60 % ref.
Turning to `Cc1cc(C2CC2C(OCCC2CCCCC2)c2ccc(OC(F)(F)F)cc2)cc(C)c1OC(C)(C)C(=O)O` (racemic) [Cpd 6-1, 2-(4-(2-(cyclohexylethyloxy(4-(trifluoromethoxy)phenyl)methyl)cyclopropyl)-2,6-dimethylphenoxy)-2-methylpropanoic acid], the results for the Emax at hPPARalpha, at hPPARgamma and on hPPARdelta were 36%, 71% and 72%, respectively. For the same compound, the EC50 was found to be 68 nM at hPPARalpha, 94 nM on hPPARgamma and 100 nM on hPPARdelta.
`Cc1cc(C2CC2C(OCCC2CCCCC2)c2ccc(OC(F)(F)F)cc2)cc(C)c1OC(C)(C)C(=O)O` (racemic) [Cpd 6-2, 2-(4-(2-(cyclohexylethyloxy(4-(trifluoromethoxy)phenyl)methyl)cyclopropyl)-2,6-dimethylphenoxy)-2-methylpropanoic acid]: on hPPARalpha, it took 26 nM to reach a half-maximal effect (EC50) and the “Gal4-hPPARα(LBD) TOP (% ref)” value is 38 % ref. Also, at hPPARgamma, it took 34 nM to reach a half-maximal effect (EC50) and the “Gal4-hPPARγ(LBD) TOP (% ref)” value came to 79 % ref. In addition, at hPPARdelta, the EC50 amounted to 131 nM and the “Gal4-hPPARδ(LBD) TOP (% ref)” value is reported as 66 % ref.
As for `COC(c1ccc(OC(F)(F)F)cc1)C1CC1c1ccc(OC(C)(C)C(=O)O)c(C)c1` (racemic) [Cpd 7-1, 2-(4-(2-(methoxy(4-(trifluoromethoxy)phenyl)methyl)cyclopropyl)-2-methylphenoxy)-2-methylpropanoic acid], the Emax at hPPARalpha was 42%; on hPPARgamma, 55%; at hPPARdelta it was 90%. In addition, the results for the EC50 at hPPARalpha, at hPPARgamma and at hPPARdelta were 265 nM, 45 nM and 35 nM, respectively.
For `COC(c1ccc(SC(F)(F)F)cc1)C1CC1c1cc(C)c(OC(C)(C)C(=O)O)c(C)c1` (racemic) [Cpd 9-1, 2-(4-(2-(methoxy(4-(trifluoromethylthio)phenyl)methyl)cyclopropyl)-2,6-dimethylphenoxy)-2-methylpropanoic acid], the Emax on hPPARalpha came out at 50%; at hPPARgamma, 77%; at hPPARdelta, 89%. Also, the EC50 at hPPARalpha was determined as 10 nM; on hPPARgamma, 11 nM; on hPPARdelta, 14 nM.
Take `CCOC(c1ccc(OC(F)(F)F)cc1)C1CC1c1cc(C)c(OC(C)(C)C(=O)O)c(C)c1` (racemic) [Cpd 10-1, 2-(4-(2-(ethoxy(4-(trifluoromethoxy)phenyl)methyl)cyclopropyl)-2,6-dimethylphenoxy)-2-methylpropanoic acid]: the Emax on hPPARalpha is 51%; at hPPARgamma it was 74%; on hPPARdelta, 90%. Also, the EC50 on hPPARalpha stood at 38 nM; on hPPARgamma it was 95 nM; at hPPARdelta, 14 nM.
For the compound `CCOC(c1ccc(OC(F)(F)F)cc1)C1CC1c1cc(C)c(OC(C)(C)C(=O)O)c(C)c1` (racemic) [Cpd 10-2, 2-(4-(2-(ethoxy(4-(trifluoromethoxy)phenyl)methyl)cyclopropyl)-2,6-dimethylphenoxy)-2-methylpropanoic acid], at hPPARalpha, the response was half-maximal at 30 nM (EC50) and the “Gal4-hPPARα(LBD) TOP (% ref)” value is reported as 43 % ref. The concentration giving a half-maximal response (EC50) on hPPARgamma turned out to be 39 nM. At hPPARdelta, a half-maximal response (EC50) required 24 nM and the “Gal4-hPPARδ(LBD) TOP (% ref)” value is 73 % ref.
As to `Cc1cc(C2CC2C(OCc2ccccc2)c2ccc(OC(F)(F)F)cc2)cc(C)c1OC(C)(C)C(=O)O` (racemic) [Cpd 11-2, 2-(4-(2-(benzyloxy(4-(trifluoromethoxy)phenyl)methyl)cyclopropyl)-2,6-dimethylphenoxy)-2-methylpropanoic acid], at hPPARalpha, the “Gal4-hPPARα(LBD) TOP (% ref)” value is listed as 42 % ref. Further, the “Gal4-hPPARγ(LBD) TOP (% ref)” value at hPPARgamma was found to be 87 % ref. Further, the “Gal4-hPPARδ(LBD) TOP (% ref)” value on hPPARdelta was determined as 67 % ref.
Consider `COC(c1ccc(C(F)(F)F)cc1F)C1CC1c1cc(C)c(OC(C)(C)C(=O)O)c(C)c1` (racemic) [Cpd 12-2, 2-(4-(2-(methoxy(2-fluoro-4-(trifluoromethyl)phenyl)methyl)cyclopropyl)-2,6-dimethylphenoxy)-2-methylpropanoic acid], for which the “Gal4-hPPARα(LBD) TOP (% ref)” value on hPPARalpha is listed as 37 % ref. On hPPARgamma, the “Gal4-hPPARγ(LBD) TOP (% ref)” value was found to be 85 % ref. Further, the “Gal4-hPPARδ(LBD) TOP (% ref)” value at hPPARdelta was 78 % ref.
With `COC(c1ccc(OC(F)(F)F)cc1)C1CC1c1cc(C)c(OC(C)(C)C(=O)O)c(C)c1` (racemic) [Cpd 14-1, 2-(4-(2-(methoxy(4-(trifluoromethoxy)phenyl)methyl)cyclopropyl)-2,6-dimethylphenoxy)-2-methylpropanoic acid], the “Gal4-hPPARγ(LBD) TOP (% ref)” value at hPPARgamma (listed as cpd 14-1) amounted to 66 % ref. Besides, the “Gal4-hPPARδ(LBD) TOP (% ref)” value on hPPARdelta (listed as cpd 14-1) turned out to be 81 % ref.
